≈ marks a conversion by molar mass, not a printed value.

Consider 13 compounds from ChEMBL document CHEMBL5260795, “Antifungal potential of marine natural products” (Eur J Med Chem, 2017).

Experiment [1] has as its system Rhagastis acuta. Kind of experiment: Antifungal activity against Rhagastis acuta measured after 3 to 4 days by agar plate diffusion method. The format is functional. As to conditions: time 3-4 day.
In experiment [2] the test system is Ogataea angusta. Kind of experiment: Antifungal activity against Pichia angusta measured after 3 to 4 days by agar plate diffusion method. The format is functional. The note with it: time 3-4 day.
The subject of experiment [3] is Candida albicans. Kind of experiment: Antifungal activity against Candida albicans measured after 3 to 4 days by agar plate diffusion method. The format is functional. The note with it: time 3-4 day.
In experiment [4] the test system is Aspergillus niger. Kind of experiment: Antifungal activity against Aspergillus niger measured after 3 to 4 days by agar plate diffusion method. In kind it is functional. The note with it: time 3-4 day.
Experiment [5] relates to Cryptococcus neoformans. The experiment in a line: Antifungal activity against Cryptococcus neoformans measured after 3 to 4 days by agar plate diffusion method. The format is functional. As to conditions: time 3-4 day.
Experiment [6] has as its system Botrytis fabae. The experiment in a line: Antifungal activity against Botrytis fabae measured after 3 to 4 days by agar plate diffusion method. The format is functional. The note with it: time 3-4 day.
Experiment [7] has as its system Candida albicans. The experiment in a line: Antifungal activity against Candida albicans ATCC76615 assessed as inhibition of fungal growth by atomatic microplate reader analysis. The format is functional.
Experiment [8] relates to Cryptococcus neoformans. The experiment in a line: Antifungal activity against Cryptococcus neoformans ATCC32609 assessed as inhibition of fungal growth by atomatic microplate reader analysis. In kind it is functional.
In experiment [9] the test system is Aspergillus fumigatus. Kind of experiment: Antifungal activity against clinical strain Aspergillus fumigatus assessed as inhibition of fungal growth by atomatic microplate reader analysis. In kind it is functional.
Experiment [10] relates to Trichophyton rubrum. Kind of experiment: Antifungal activity against Trichophyton rubrum assessed as inhibition of fungal growth by atomatic microplate reader analysis. The format is functional.
The subject of experiment [11] is Candida tropicalis. The experiment in a line: Antifungal activity against clinical strain Candida tropicalis assessed as inhibition of fungal growth by atomatic microplate reader analysis. In kind it is functional.
In experiment [12] the test system is Pichia kudriavzevii. Kind of experiment: Antifungal activity against clinical strain Candida krusei assessed as inhibition of fungal growth by atomatic microplate reader analysis. The format is functional.
Experiment [13] concerns Candida albicans. The experiment in a line: Antifungal activity against amphotericin-B-resistant Candida albicans assessed as zone of inhibition 1 ug/disk. In kind it is functional. The note with it: dose 1 µg.
Experiment [14] has as its system Candida albicans. The experiment in a line: Antifungal activity against Candida albicans ATCC76615 by atomatic microplate reader analysis. The format is functional.
Experiment [15] concerns Kluyveromyces marxianus. Kind of experiment: Antifungal activity against clinical strain Candida pseudotropicalis by atomatic microplate reader analysis. In kind it is functional.
Experiment [16] deals with Candida parapsilosis. The experiment in a line: Antifungal activity against clinical strain Candida parapsilosis by atomatic microplate reader analysis. The format is functional. The note with it: Lodderomyces parapsilosis.
In experiment [17] the test system is Nannizzia gypsea. The experiment in a line: Antifungal activity against Microsporum gypseum ATCC31388 by atomatic microplate reader analysis. In kind it is functional.
For experiment [18], the system named is Cryptococcus neoformans. Kind of experiment: Antifungal activity against Cryptococcus neoformans var. grubii assessed as fungal growth inhibition. In kind it is functional.
Experiment [19] concerns Cryptococcus neoformans. Kind of experiment: Antifungal activity against Cryptococcus neoformans. In kind it is functional, organism-based.
For experiment [20], the system named is Saccharomyces cerevisiae. Kind of experiment: Antifungal activity against Saccharomyces cerevisiae assessed as inhibition of fungal growth. The format is functional, organism-based.
The test system of experiment [21] is Candida tropicalis. Kind of experiment: Antifungal activity against Candida tropicalis assessed as fungal growth inhibition. The format is functional.
Experiment [22] deals with Nannizzia gypsea. Kind of experiment: Antifungal activity against Microsporum gypseum ATCC31388. The format is functional.
In experiment [23] the test system is Botrytis cinerea. Kind of experiment: Antifungal activity against Botrytis cinerea AJ 117140 assessed as inhibition of fungal growth. The format is functional.
Experiment [24] deals with Globisporangium ultimum. The experiment in a line: Antifungal activity against Pythium ultimum IFO32210 assessed as inhibition of fungal growth. In kind it is functional.
The test system of experiment [25] is Saprolegnia parasitica. The experiment in a line: Antifungal activity against Saprolegnia parasitica IFO8978 assessed as inhibition of fungal growth. In kind it is functional.
Experiment [26] concerns Epidermophyton floccosum. Kind of experiment: Antifungal activity against Epidermophyton floccosum measured after 96 hrs by two fold serial dilution technique. In kind it is functional.
Experiment [27] relates to Trichophyton mentagrophytes. Kind of experiment: Antifungal activity against Trichophyton mentagrophytes measured after 96 hrs by two fold serial dilution technique. The format is functional.
For experiment [28], the system named is Nannizzia gypsea. Kind of experiment: Antifungal activity against Microsporum gypseum measured after 96 hrs by two fold serial dilution technique. In kind it is functional.
Experiment [29] relates to Aspergillus niger. Kind of experiment: Antifungal activity against Aspergillus niger measured after 96 hrs by two fold serial dilution technique. The format is functional.
Experiment [30] concerns Aspergillus fumigatus. Kind of experiment: Antifungal activity against Aspergillus fumigatus measured after 96 hrs by two fold serial dilution technique. In kind it is functional.
Experiment [31] concerns Fusarium oxysporum. The experiment in a line: Antifungal activity against Fusarium oxysporum measured after 96 hrs by two fold serial dilution technique. The format is functional.
Experiment [32] deals with Candida albicans. The experiment in a line: Antifungal activity against Candida albicans measured after 96 hrs by two fold serial dilution technique. In kind it is functional.
The subject of experiment [33] is Cryptococcus neoformans. The experiment in a line: Antimicrobial activity against Cryptococcus neoformans. The format is functional.
For experiment [34], the system named is Candida albicans. Kind of experiment: Antimicrobial activity against Candida albicans assessed as inhibition of microbial growth. The format is functional.
Experiment [35] relates to Candida tropicalis. Kind of experiment: Antimicrobial activity against amphotericin-B-resistant Candida tropicalis. The format is functional.
Experiment [36] relates to Candida tropicalis. The experiment in a line: Antimicrobial activity against nystatin-resistant Candida tropicalis. The format is functional.
The subject of experiment [37] is Cryptococcus neoformans. The experiment in a line: Antifungal activity against Cryptococcus neoformans assessed as fungal growth inhibition. The format is functional.

The MIC is the least concentration at which growth counts as inhibited. Regarding `CC[C@@H](CC(=O)C(Cl)Cl)[C@H](C)c1ccc([N+](=O)[O-])cc1`, the minimal inhibitory concentration (MIC) in experiment [1], in [2], in experiment [3], in experiment [4], in experiment [5] and in experiment [6] was 0.1 µg/mL (≈ 0.314 µM) each time.

Consider `CO[C@@H]1[C@@H](O)[C@H](O[C@@H]2[C@@H](O)[C@H](O[C@@H]3[C@@H](O)[C@H](O)[C@@H](O[C@H]4[C@H](O[C@H]5CC[C@@H]6C7=C[C@H](O)[C@]89C(=O)O[C@@](C)(CCC=C(C)C)[C@H]8CC[C@@]9(C)[C@@H]7CC[C@H]6C5(C)C)OC[C@@H](O[C@@H]5O[C@H](CO)[C@@H](O)[C@H](O[C@@H]6O[C@H](CO)[C@@H](O)[C@H](OC)[C@H]6O)[C@H]5O)[C@@H]4O)O[C@H]3C)O[C@H](CO)[C@H]2O)O[C@H](CO)[C@H]1O`, for which the MIC in experiment [7], in experiment [8], in [9], in experiment [10], in experiment [11] and in [12] was 0.7 µM (≈ 0.988 µg/mL) throughout.

Consider `CCC(C)CC(C)[C@@H](O)[C@@H](C)C(=O)N[C@H](CN)C(=O)N[C@@H]([C@H](O)[C@H](O)C(=O)N[C@H](C(=O)N[C@H]1C(=O)N[C@H]([C@@H](C)O)C(=O)N[C@H](CCCN)C(=O)N[C@@H](CC(C)C)C(=O)N(C)[C@@H](CCC(N)=O)C(=O)NC(C(OC)C(N)=O)C(=O)N[C@H](CC(N)=O)C(=O)N(C)[C@@H](CC(C)C)C(=O)O[C@@H]1C)[C@@H](C)C(C)C(N)=O)C(C)(C)O` (stereo not given in full), for which the “inhibition zone (IZ)” value in experiment [13] was determined as 8 mm.

Take `CO[C@@H]1[C@@H](O)[C@H](O[C@@H]2[C@H](O)[C@H](O[C@H]3[C@H](O)[C@@H](O)[C@H](O[C@H]4[C@H](OC5CC[C@]6(C)C7=C(CC[C@H]6C5(C)C)[C@]5(C)CC[C@H]6[C@]5(CC7)C(=O)O[C@@]6(C)C[C@H](O)CC(C)C)OC[C@@H](O[C@@H]5O[C@H](CO)[C@@H](O)[C@H](O)[C@H]5O)[C@@H]4O)O[C@@H]3CO)OC[C@H]2O)O[C@H](CO)[C@H]1O` (stereo not given in full): the MIC in experiment [14], in [15], in experiment [16] and in [17] was 3.4 µg/mL (≈ 2.75 µM) throughout.

Take `CO[C@@H]1[C@@H](O)[C@H](O[C@@H]2[C@@H](O)[C@H](O[C@@H]3[C@@H](O)[C@H](O)[C@@H](O[C@H]4[C@H](O[C@H]5CC[C@@H]6C7=C[C@H](O)[C@]89C(=O)O[C@@](C)(CCCC(C)C)[C@H]8CC[C@@]9(C)[C@@H]7CC[C@H]6C5(C)C)OC[C@@H](O[C@@H]5O[C@H](CO)[C@@H](O)[C@H](O[C@@H]6O[C@H](CO)[C@@H](O)[C@H](OC)[C@H]6O)[C@H]5O)[C@@H]4O)O[C@H]3C)O[C@H](CO)[C@H]2O)O[C@H](CO)[C@H]1O`: the MIC in experiment [7], in [8], in experiment [9], in experiment [10], in [11] and in experiment [12] was 0.7 µM (≈ 0.989 µg/mL) in each case.

On to `COC(=O)CCC[C@@H]1CC[C@@H](C#C/C=C/CCCCCC/C=C/Br)O1`, for which the MIC in experiment [18] stood at 4 µg/mL (≈ 9.72 µM).

As usually defined, the IC50 is the concentration needed to halve the response being measured. Regarding `CCC(C)CC(C)/C=C(C)/C=C/CC(C)C(O)C(C)/C=C(C)/C=C/C(O)C(C)c1cc(O)c(C2OC(CO)CC(O)C2O)c(=O)o1` (stereo not given), the IC50 in [19] and in experiment [20] was 1.56 µg/mL (≈ 2.41 µM) throughout.

Turning to `C=C(C)CCC[C@@]1(C)OC(=O)[C@]23CC=C4C(=CC[C@H]5C(C)(C)[C@@H](O[C@@H]6OC[C@@H](O[C@@H]7O[C@H](CO)[C@@H](O)[C@H](O[C@@H]8O[C@H](CO)[C@@H](O)[C@H](O)[C@H]8O)[C@H]7O)[C@H](O)[C@H]6O[C@@H]6O[C@H](CO)[C@@H](O[C@@H]7OC[C@@H](O)[C@H](O[C@@H]8O[C@H](CO)[C@@H](O)[C@H](OC)[C@H]8O)[C@H]7O)[C@H](O)[C@H]6O)CC[C@]45C)[C@@]2(C)CC(=O)[C@@H]13`, the MIC in [21] and in [22] was 1.4 µM (≈ 1.95 µg/mL) throughout.

As to `C=CC1OC1(C)CC(C)/C(C)=C/C=C(C)\C=C(OC)\C(=C/C(=O)OC)OC` (stereo not given), the MIC in experiment [23] was found to be 3.1 µg/mL (≈ 8.23 µM); in [24] it was 0.4 µg/mL (≈ 1.06 µM); in experiment [25] it was 0.1 µg/mL (≈ 0.266 µM).

As to `CC(=O)OCc1cc(=O)occ1O`, the MIC in experiment [26], in experiment [27], in experiment [28], in experiment [29], in experiment [30] and in [31] was 1 µg/mL (≈ 5.43 µM) each time. In [32], this compound came in with an MIC of 1 µg/mL (≈ 5.43 µM).

Turning to `CCCCCCCCC(O)C(O)CC/C=C\CCCCCC(O)C(N)CO` (stereo not given), the MIC amounted to 0.2 µg/mL (≈ 0.516 µM) in experiment [33], 0.4 µg/mL in experiment [34], 0.4 µg/mL (≈ 1.03 µM) in experiment [35] and 0.4 µg/mL (≈ 1.03 µM) in experiment [36].

Turning to `CCCCC(C)C/C(=C/[C@@]1(CC)OC(=O)C[C@@H]1O)CC` (stereo not given in full) [SIMPLEXOLIDE E], the MIC in experiment [37] turned out to be 3.66 µg/mL (≈ 13 µM).

With `CO[C@@H]1[C@@H](O)[C@H](O[C@@H]2[C@@H](O)[C@H](O[C@@H]3CO[C@@H](O[C@H]4CC[C@]5(C)[C@@H]6CC[C@]78C(=O)O[C@@](C)(C[C@H](CC(C)C)OC(C)=O)[C@H]7C(=O)C[C@@]8(C)C6=CC[C@H]5C4(C)C)[C@H](O[C@@H]4O[C@H](C)[C@@H](O[C@@H]5OC[C@@H](O)[C@H](O[C@@H]6O[C@H](CO)[C@@H](O)[C@H](OC)[C@H]6O)[C@H]5O)[C@H](O)[C@H]4O)[C@H]3O)O[C@H](CO)[C@H]2O)O[C@H](CO)[C@H]1O`, the MIC in experiment [21] and in [22] was 1.4 µM (≈ 2.04 µg/mL) in each case.
